Test results taken from PubChem BioAssay (NCI).
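Results reflect a 48-hour exposure of cells in 96-well plates to compound at five concentrations. TGI: total growth inhibition.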

How the values were obtained:
Test in all cases: NCI anticancer screen, dose series, 48 h
TK-10 renal = tested on: TK-10 renal
XF 498 CNS = tested on: XF 498 CNS
ACHN renal = tested on: ACHN renal
SF-295 CNS = tested on: SF-295 CNS
KM20L2 colon = tested on: KM20L2 colon
U251 CNS = tested on: U251 CNS
M14 melanoma = tested on: M14 melanoma
OVCAR-5 ovarian = tested on: OVCAR-5 ovarian
DMS 273 small cell lung = tested on: DMS 273 small cell lung
786-0 renal = tested on: 786-0 renal
DMS 114 small cell lung = tested on: DMS 114 small cell lung
T-47D breast = tested on: T-47D breast
MDA-N = tested on: MDA-N

SMILES | TGI (TK-10 renal) | TGI (XF 498 CNS) | TGI (ACHN renal) | TGI (SF-295 CNS) | TGI (KM20L2 colon) | TGI (U251 CNS) | TGI (M14 melanoma) | TGI (OVCAR-5 ovarian) | TGI (DMS 273 small cell lung) | TGI (786-0 renal) | TGI (DMS 114 small cell lung) | TGI (T-47D breast) | TGI (MDA-N)
CCN(CC)CCNc1ccc2nnn3c4ccccc4c(=O)c1c23 | 22.9 µM | 13.6 µM | > 100 µM | 15.3 µM | 15.1 µM | 9.22 µM | 15.6 µM | 14.4 µM | 14.3 µM | 20.7 µM | 24.2 µM |  | 
[O-][n+]1c(-c2ccccc2)c2nc3ccccc3nc2c2ccccc21 | > 100 µM | > 100 µM | > 100 µM | > 100 µM | > 100 µM | > 100 µM | > 100 µM | > 100 µM | > 100 µM | > 100 µM | > 100 µM |  | 
O=C(O)c1nccnc1C(=O)O | > 100 µM | > 100 µM |  | > 100 µM | > 100 µM | > 100 µM |  | > 100 µM | > 100 µM | > 100 µM | > 100 µM |  | 
COc1cc2c(c(OC(C)=O)c1OC(C)=O)-c1ccc(SC)c(=O)cc1C(NC(C)=O)CC2 (stereo not given) | > 100 µM | 42.4 µM | > 100 µM | 10.1 µM | 10.4 µM | > 32 µM | > 69.1 µM | > 100 µM | > 100 µM | > 100 µM | 6.11 µM |  | 
C=CCc1cccc(/C=N\N=C(/N)NO)c1O |  | 9.65 µM |  | 7.09 µM | 31.8 µM | > 88.3 µM |  | 64.3 µM | 16.5 µM |  | 12.9 µM |  | 
CC(O[Si](c1ccccc1)(c1ccccc1)C(C)(C)C)[C@H](NC(=O)OC(C)(C)C)C(=O)O (stereo not given in full) | > 100 µM |  | > 100 µM | > 100 µM |  | > 100 µM | > 100 µM | > 100 µM |  | > 100 µM |  | > 100 µM | 97.1 µM
O=[N+]([O-])c1cccc2nc3ccccc3c(NCCCN3CCCCC3)c12 | 0.0712 µM |  | 0.0472 µM | 0.0605 µM |  | 0.0734 µM | 0.0232 µM | 0.0669 µM |  | 0.0492 µM |  | 0.182 µM | 0.0217 µM
C=CCn1cnc2c(=O)[nH]c(Nc3ccccc3)nc21 | > 100 µM |  | > 100 µM | > 100 µM |  | > 100 µM | > 100 µM | > 100 µM |  | > 100 µM |  | > 100 µM | > 100 µM
NC(=S)NS(=O)(=O)c1ccc(F)cc1F | > 100 µM |  | > 100 µM | > 100 µM |  | > 100 µM | > 100 µM | > 100 µM |  | > 100 µM |  | > 100 µM | > 100 µM
CC(=O)N/C(=C\c1ccc(/C=C(\NC(C)=O)C2=NC3C(=O)c4ccccc4C(=O)C3N2)cc1)C1=NC2C(=O)c3ccccc3C(=O)C2N1 (stereo not given) | 69.3 µM | > 100 µM | > 100 µM | > 100 µM | > 100 µM | > 100 µM | > 100 µM | > 100 µM | > 100 µM |  | > 100 µM |  | 
O=C(CCOS(=O)(=O)CF)N1CCN(C(=O)CCOS(=O)(=O)CF)CC1 | > 100 µM |  | > 88.7 µM | > 46.4 µM |  | > 100 µM | > 100 µM | > 100 µM |  | > 100 µM |  | > 100 µM | > 100 µM
COc1ccc(CNC(=O)[C@H](Cc2ccc(O)cn2)NC(C)=O)cc1 | > 100 µM |  | > 100 µM | > 100 µM |  | > 100 µM | > 100 µM | > 100 µM |  | > 100 µM |  | > 100 µM | > 100 µM
Cn1c2c3c(F)c(F)ccc3nc-2cc2ccccc21 | 3.91 µM |  | 4.68 µM | 5.69 µM |  | 12.9 µM | 5.41 µM | 9.07 µM |  | 11.8 µM |  | 4.39 µM | 15 µM
COC(=O)c1cc(C)n(CN(Cc2ccccc2)Cn2nc(C(=O)OC)cc2C)n1 | > 100 µM |  | > 65.6 µM | > 100 µM |  | > 100 µM | > 100 µM | > 100 µM |  | > 100 µM |  | > 100 µM | > 100 µM
COc1cccc2cc(C(=O)Nc3ccccn3)c(=N)oc12 | > 100 µM |  | > 100 µM | > 100 µM |  | > 100 µM | > 100 µM | > 100 µM |  | > 100 µM |  | > 100 µM | > 100 µM
